Data on 19 compounds can be found in patent US12590106B2, “Spiromacrocyclic orexin 2 receptor agonists” (H. Lundbeck A/S, priority 2023, dated 2026).

This test addresses T1, human Ox2R (Homo sapiens, UniProt O43614).
T1 construct: The gene encoding hOx2R was subcloned into the expression plasmid pcDNA5/FRT/TO; expressed in transfected cells; host or cells: CHO Flp-In cells (pcDNA5/FRT/TO with pOG44 Flp recombinase vector, hygromycin B selection)
T1 sequence (O43614 1-444): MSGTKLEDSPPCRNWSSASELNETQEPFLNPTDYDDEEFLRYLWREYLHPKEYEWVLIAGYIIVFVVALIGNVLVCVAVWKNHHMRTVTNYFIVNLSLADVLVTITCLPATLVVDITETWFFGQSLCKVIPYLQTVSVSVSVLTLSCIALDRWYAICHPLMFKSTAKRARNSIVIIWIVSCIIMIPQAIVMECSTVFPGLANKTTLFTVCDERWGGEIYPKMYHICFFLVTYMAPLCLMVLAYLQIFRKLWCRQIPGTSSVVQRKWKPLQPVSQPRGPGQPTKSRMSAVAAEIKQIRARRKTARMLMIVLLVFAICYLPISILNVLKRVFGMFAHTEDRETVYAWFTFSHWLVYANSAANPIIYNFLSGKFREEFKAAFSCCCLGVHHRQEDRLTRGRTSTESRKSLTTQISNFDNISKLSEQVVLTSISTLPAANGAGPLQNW
Nature of the test: Measurement of OX2R agonist activity (cell-based calcium release assay). The following applies: hOx2R-CHO Flp-In cells, n≥2 tests; for EC50: intracellular calcium, read-out: EC50; for Emax (%) / Emax: normalized to assay buffer (0%) and 10 μM Danavorexton (100%); for Emax: read-out: Emax (%). Put shortly:
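CHO Flp-In cells stably expressing human Ox2R, dye-loaded 1 h at 37 °C in HBSS/20 mM HEPES pH 7.4 with 2.5 mM probenecid and 10 mM CaCl2, then stimulated with compound.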
(Calcium assays in cells follow changes in intracellular calcium, usually with a dye or a luminescent sensor.)

On to `C[C@@H]1C[C@@H](NS(C)(=O)=O)C[C@@]12Cc1ccc(F)c(c1)-c1ccccc1OCc1coc2n1` [Example 62, N-[(1′R,4′R,14S)-19-fluoro-4′-methyl-spiro[8,12-dioxa-21-azatetracyclo[14.3.1.110,13.02,7]henicosa-1(19),2,4,6,10,13(21),16(20),17-octaene-14,3′-cyclopentane]-1′-yl]methanesulfonamide or N-[(1′S,4′S,14R)-19-fluoro-4′-methyl-spiro[8,12-dioxa-21-azatetracyclo[14.3.1.110,13.02,7]henicosa-1(19),2,4,6,10,13(21),16(20),17-octaene-14,3′-cyclopentane]-1′-yl]methanesulfonamide], for which the EC50 (in general, the concentration at which the effect is half-maximal) stood at 160 nM and the “Emax (%)” value came to 100%.
With `C[C@@H]1C[C@@H](NS(C)(=O)=O)C[C@@]12Cc1ccc(F)c(c1)-c1ccccc1OCc1coc2n1` [Example 63, N-[(1′R,4′R,14S)-19-fluoro-4′-methyl-spiro[8,12-dioxa-21-azatetracyclo[14.3.1.110,13.02,7]henicosa-1(19),2,4,6,10,13(21),16(20),17-octaene-14,3′-cyclopentane]-1′-yl]methanesulfonamide or N-[(1′S,4′S,14R)-19-fluoro-4′-methyl-spiro[8,12-dioxa-21-azatetracyclo[14.3.1.110,13.02,7]henicosa-1(19),2,4,6,10,13(21),16(20),17-octaene-14,3′-cyclopentane]-1′-yl]methanesulfonamide], the EC50 was found to be 1.4 nM and the “Emax (%)” value is given as 100%.
Turning to `CS(=O)(=O)N[C@H]1CC[C@@]2(CO[C@H]3CC[C@H](CC3)c3ccccc3OCc3noc2n3)C1` [Example 64, N-[(1s,1′S,14R,17s)-spiro[8,12,16-trioxa-11,22-diazatetracyclo[15.2.2.110,13.02,7]docosa-2,4,6,10,13(22)-pentaene-14,3′-cyclopentane]-1′-yl]methanesulfonamide], the EC50 is 3 nM and the Emax (as a rule, the greatest response seen or fitted, relative to the assay's reference) was 100%.
The matching figures for `CS(=O)(=O)N[C@H]1CC[C@@]2(CO[C@H]3CC[C@H](CC3)c3ccccc3OCc3nc2no3)C1` [Example 65, N-[(1s,1′S,14R,17s)-spiro[8,11,16-trioxa-12,22-diazatetracyclo[15.2.2.110,13.02,7]docosa-2,4,6,10(22),12-pentaene-14,3′-cyclopentane]-1′-yl]methanesulfonamide]: 45 nM and 99%.
The matching figures for `CS(=O)(=O)N[C@H]1CC[C@@]2(CO[C@H]3CC[C@H](CC3)c3ncccc3OCc3coc2n3)C1` [Example 66, N-[(1s,1′S,14R,17s)-spiro[8,12,16-trioxa-3,22-diazatetracyclo[15.2.2.110,13.02,7]docosa-2,4,6,10,13(22)-pentaene-14,3′-cyclopentane]-1′-yl]methanesulfonamide]: 81 nM and 94%.
`CS(=O)(=O)N[C@H]1CC[C@@]2(COCCCc3cccc(c3)OCc3coc2n3)C1` [Example 67, N-[(1S,8S)-spiro[2,6,10-trioxa-19-azatricyclo[12.3.1.14,7]nonadeca-1(18),4,7(19),14,16-pentaene-8,3′-cyclopentane]-1′-yl]methanesulfonamide]: the EC50 was 1200 nM and the Emax was 94%.
As to `Cc1oc2nc1COc1ccccc1-c1cccc(c1)C[C@@]21CC[C@H](NS(C)(=O)=O)C1` [Example 68, N-[(1′S,14R)-11-methylspiro[8,12-dioxa-21-azatetracyclo[14.3.1.110,13.02,7]henicosa-1(19),2,4,6,10,13(21),16(20),17-octaene-14,3′-cyclopentane]-1′-yl]methanesulfonamide], the EC50 is 1.5 nM and the Emax amounted to 98%.
The matching figures for `CS(=O)(=O)N[C@H]1CC[C@@]2(Cc3ccc(F)c(c3)-c3cc(F)cc(F)c3OCc3coc2n3)C1` [Example 69, N-[(1′S,14R)-4,6,19-trifluorospiro[8,12-dioxa-21-azatetracyclo[14.3.1.110,13.02,7]henicosa-1(19),2,4,6,10,13(21),16(20),17-octaene-14,3′-cyclopentane]-1′-yl]methanesulfonamide]: 0.2 nM and 96%.
The matching figures for `CS(=O)(=O)N[C@H]1CC[C@@]2(CO[C@H]3CC[C@H](CC3)c3cccc(c3)OCCc3coc2n3)C1` [Example 70, N-[(1s,1′S,14R,17s)-spiro[7,12,16-trioxa-22-azatetracyclo[15.2.2.12,6.110,13]tricosa-2,4,6(23),10,13(22)-pentaene-14,3′-cyclopentane]-1′-yl]methanesulfonamide]: 1.8 nM and 98%.
For `CS(=O)(=O)N[C@H]1CC[C@@]2(Cc3ccc(F)c(c3)-c3cccc(F)c3OCC3=NN=C2O3)C1` [Example 71, N-[(1′S,14R)-6,19-difluorospiro[8,21-dioxa-11,12-diazatetracyclo[14.3.1.110,13.02,7]henicosa-1(19),2(7),3,5,10,12,16(20),17-octaene-14,3′-cyclopentane]-1′-yl]methanesulfonamide], the half-maximal effective concentration (EC50) turned out to be 49 nM and the Emax came out at 97%.
Regarding `CS(=O)(=O)N[C@H]1CC[C@@]2(CO[C@H]3C[C@H](C3)c3ccccc3OCc3coc2n3)C1` [Example 72, N-[(1′S,10r,12s,15S)-spiro[3,13,17-trioxa-19-azatetracyclo[14.2.1.110,12.04,9]icosa-1(18),4,6,8,16(19)-pentaene-15,3′-cyclopentane]-1′-yl]methanesulfonamide], the EC50 turned out to be 190 nM and the Emax stood at 97%.
`CS(=O)(=O)N[C@H]1CC[C@@]2(CO[C@H]3CC[C@H](CC3)c3cccc(c3)OCc3cnc2o3)C1` [Example 73, N-[(1s,1′S,13S,16s)-spiro[7,15,21-trioxa-11-azatetracyclo[14.2.2.12,6.19,12]docosa-2,4,6(22),9,11-pentaene-13,3′-cyclopentane]-1′-yl]methanesulfonamide]: the EC50 was found to be 0.94 nM and the Emax worked out at 98%.
The matching figures for `CS(=O)(=O)N[C@H]1CC[C@@]2(Cc3cccc(c3)-c3cccnc3NCc3coc2n3)C1` [Example 74, N-[(1′S,14R)-spiro[12-oxa-6,8,21-triazatetracyclo[14.3.1.110,13.02,7]henicosa-1(20),2,4,6,10,13(21),16,18-octaene-14,3′-cyclopentane]-1′-yl]methanesulfonamide]: 92 nM and 100%.
The matching figures for `CS(=O)(=O)N[C@H]1CC[C@]2(CC1)Cc1cccc(c1)-c1cccc(F)c1OCc1coc2n1` [Example 75, N-(cis)-(6-fluorospiro[8,12-dioxa-21-azatetracyclo[14.3.1.110,13.02,7]henicosa-1(20),2,4,6,10,13(21),16,18-octaene-14,4′-cyclohexane]-1′-yl)methanesulfonamide]: 1.4 nM and 100%.
With `CS(=O)(=O)N[C@H]1CC[C@@]2(Cc3ccc(Cl)c(c3)-c3cc(F)cc(F)c3OCc3coc2n3)C1` [Example 76, N-[(1′S,14R)-19-chloro-4,6-difluoro-spiro[8,12-dioxa-21-azatetracyclo[14.3.1.110,13.02,7]henicosa-1(19),2,4,6,10,13(21),16(20),17-octaene-14,3′-cyclopentane]-1′-yl]methanesulfonamide], the EC50 is 0.26 nM and the maximal response (Emax) is 99%.
The matching figures for `O=S(=O)(N[C@H]1CC[C@@]2(Cc3cccc(c3)-c3cccc(F)c3OCc3coc2n3)C1)C1CCOC1` (stereo partly drawn) [Example 79, N-[(1′S,14R)-6-fluorospiro[8,12-dioxa-21-azatetracyclo[14.3.1.110,13.02,7]henicosa-1(19),2,4,6,10,13(21),16(20),17-octaene-14,3′-cyclopentane]-1′-yl]tetrahydrofuran-3-sulfonamide]: 20 nM and 100%.
With `CS(=O)(=O)N[C@H]1CC[C@@]2(Cc3cccc(n3)-c3ccccc3OCc3coc2n3)C1` [Example 80, N-[(1′S,14S)-spiro[8,12-dioxa-20,21-diazatetracyclo[14.3.1.110,13.02,7]henicosa-1(20),2,4,6,10,13(21),16,18-octaene-14,3′-cyclopentane]-1′-yl]methanesulfonamide], the EC50 is 9900 nM and the Emax was found to be 66%.
Take `Cn1cc2c(n1)OCc1coc(n1)[C@]1(CC[C@H](NS(C)(=O)=O)C1)Cc1ccc(F)c-2c1` [Example 81, N-[(1′S,13R)-18-fluoro-4-methyl-spiro[7,11-dioxa-4,5,20-triazatetracyclo[13.3.1.19,12.02,6]icosa-1(18),2,5,9,12(20),15(19),16-heptaene-13,3′-cyclopentane]-1′-yl]methanesulfonamide]: the EC50 amounted to 0.068 nM and the Emax came out at 100%.
The matching figures for `CS(=O)(=O)N[C@H]1CC[C@@]2(Cc3ccc(F)c(c3)-c3cccc(F)c3OCc3ccnc2n3)C1` [Example 82, N-[(1′S,15R)-6,20-difluorospiro[8-oxa-13,22-diazatetracyclo[15.3.1.110,14.02,7]docosa-1(20),2(7),3,5,10,12,14(22),17(21),18-nonaene-15,3′-cyclopentane]-1′-yl]methanesulfonamide]: 3.7 nM and 100%.
